# Data reported in US20080108665A1, “Use of N-substituted sulfoximines for control of invertebrate pests” (priority 2006, published 2008).
# Legend:
# Format in all cases: in vivo
# [1] = tested on: Brown Planthopper (Nilaparvata lugens); assay: Brown planthopper root uptake assay on rice; settings: 6-day observation
# Procedure: (§1) These assays were designed to evaluate the possibility of using compounds of the invention for applications such as nursing trays, transplanting water and/or irrigation. Root-uptake systemic assays were performed on both brown planthopper and green leafhopper. Four-week-old rice seedlings were submerged in 3-cm depth of water in the bottom portion (high 5 cm, diameter 3 cm) of a 2-part glass cylinder (high 18 cm, diameter 3 cm). A metal screen was used to hold the seedlings within the bottom portion. Scotch tape was used to bind the two portions of the cylinder after setting up the seedlings. A metal cap was used to cover the cylinder. There were 4 cylinders for each treatment. The test compound was dissolved in acetone to make a 10,000 ppm stock solution which was incorporated at final test concentrations of 5, 2, 1, 0.5, 0.25 ppm in the water in which rice seedlings were submerged. Five laboratory-reared 3rd instar nymphs of brown planthopper or green leafhopper were introduced into each cylinder 3 hr after insecticide application. The treated test units were kept in a growth chamber with conditions set as followings: Temperature 28±0.5° C.; Relative humidity 70±0.5%; Photoperiod 14 hr light: […].
# [2] = tested on: Eastern Subterranean Termite (Reticulitermes flavipes); assay: Eastern subterranean termite filter paper assay
# Procedure: Activity of Compound (2) was evaluated for its activity on Eastern subterranean termite. Technical material of the test compound was formulated in acetone on a wt/wt basis to deliver 1000, 500, 200, 50, 12.5, 3.12 and 0.78 ppm to 42.5 mm Whatman No. 1 filter papers per 200 ul of pipetted solution. Each test concentration was applied to six filter papers (6 reps). Six acetone-only control units and six DI water-only control units were also prepared. The filter papers were dried overnight in the fume hood before they were placed into 60×15 mm Fisher Brand plastic Petri dishes. A volume of 200 ul DI water was pipetted onto each Filter paper at the time of test set-up, just prior to infesting with termites. Ten worker termites were added to each Petri dish and covered. The infested Petri dishes were put in the laboratory Conviron at 28° C. and 60% RH. Termite mortality was recorded at 1, 2, 4, 7, and 10 days after infestation (DAI). Throughout the duration of the test, an average of 150 ul of DI water was added daily to the filter papers to retain moisture.
# [3] = tested on: Brown Dog Tick (Rhipicephalus sanguineus); assay: Brown dog tick glass plate assay; settings: 48-hour exposure, mean
# Procedure: Compound (2) was evaluated in a dose response series to establish the range of activity of the test compound. Technical material was dissolved in acetone and diluted with the same solvent to obtain the test concentrations. Tick bioassays were conducted by applying 1.0 ml of the test substance to clean dry glass plates confined by 10 cm grease pencil circles drawn on the plates and spread evenly with an acid brush. The plates were allowed to dry for at least 1 hour before adult ticks were confined to the treated substrate using 10 cm Petri dish lids. Each treatment was replicated 5 times. Approximately 5 adult ticks were placed into each replicate. Mortality was assessed at 2, 8, 24 and 48 hours after introduction of the ticks into the test system. The mean percent mortality for each dosage group and time interval was determined and results from the 48-hour observation are presented in Table 9.
# [4] = tested on: Green Leafhopper (Nephotettix sp.); assay: Green leafhopper root uptake assay on rice; settings: 6-day observation
# Procedure: as §1
compound,measurement,setting,value
"CC(c1ccc(Cl)nc1)S(C)(=O)=NC#N (stereo not drawn) [Compound 2, [1-(6-chloropyridin-3-yl)ethyl](methyl)oxido-λ^4-sulfanylidenecyanamide]","% Control, root uptake systemic Brown planthopper",[1]; 0.25 ppm in water,55%
same,"% Control, root uptake systemic Brown planthopper",[1]; 0.50 ppm in water,80%
same,"% Control, root uptake systemic Brown planthopper",[1]; 1.00 ppm in water,100%
same,"% Control, root uptake systemic Brown planthopper",[1]; 2.00 ppm in water,100%
same,"% Control, root uptake systemic Brown planthopper",[1]; 5.00 ppm in water,100%
same,mortality at 0.78 ppm,[2]; 1 DAI,0%
same,mortality at 0.78 ppm,[2]; 2 DAI,2%
same,mortality at 0.78 ppm,[2]; 4 DAI,2%
same,mortality at 0.78 ppm,[2]; 7 DAI,7%
same,mortality at 0.78 ppm,[2]; 10 DAI,10%
same,mortality at 3.13 ppm,[2]; 1 DAI,0%
same,mortality at 3.13 ppm,[2]; 2 DAI,3%
same,mortality at 3.13 ppm,[2]; 4 DAI,43%
same,mortality at 3.13 ppm,[2]; 7 DAI,60%
same,mortality at 3.13 ppm,[2]; 10 DAI,60%
same,mortality at 12.5 ppm,[2]; 1 DAI,15%
same,mortality at 12.5 ppm,[2]; 2 DAI,32%
same,mortality at 12.5 ppm,[2]; 4 DAI,60%
same,mortality at 12.5 ppm,[2]; 7 DAI,63%
same,mortality at 12.5 ppm,[2]; 10 DAI,63%
same,mortality at 50 ppm,[2]; 1 DAI,15%
same,mortality at 50 ppm,[2]; 2 DAI,27%
same,mortality at 50 ppm,[2]; 4 DAI,67%
same,mortality at 50 ppm,[2]; 7 DAI,92%
same,mortality at 50 ppm,[2]; 10 DAI,93%
same,mortality at 200 ppm,[2]; 1 DAI,37%
same,mortality at 200 ppm,[2]; 2 DAI,58%
same,mortality at 200 ppm,[2]; 4 DAI,87%
same,mortality at 200 ppm,[2]; 7 DAI,97%
same,mortality at 200 ppm,[2]; 10 DAI,100%
same,mortality at 500 ppm,[2]; 1 DAI,38%
same,mortality at 500 ppm,[2]; 2 DAI,60%
same,mortality at 500 ppm,[2]; 4 DAI,93%
same,mortality at 500 ppm,[2]; 7 DAI,100%
same,mortality at 500 ppm,[2]; 10 DAI,100%
same,mortality at 1000 ppm,[2]; 1 DAI,47%
same,mortality at 1000 ppm,[2]; 2 DAI,68%
same,mortality at 1000 ppm,[2]; 4 DAI,92%
same,mortality at 1000 ppm,[2]; 7 DAI,100%
same,mortality at 1000 ppm,[2]; 10 DAI,100%
same,mortality at 5 ppm,[3]; 5.0 ppm,52%
same,mortality at 50 ppm,[3]; 50.0 ppm,56%
same,mortality at 500 ppm,[3]; 500.0 ppm,84%
same,"% Control, root uptake systemic Green leafhopper",[4]; 0.25 ppm in water,45%
same,"% Control, root uptake systemic Green leafhopper",[4]; 0.50 ppm in water,65%
same,"% Control, root uptake systemic Green leafhopper",[4]; 1.00 ppm in water,100%
same,"% Control, root uptake systemic Green leafhopper",[4]; 2.00 ppm in water,100%
same,"% Control, root uptake systemic Green leafhopper",[4]; 5.00 ppm in water,100%
